Values of other authors in US20190142979A1, “CONTRAST MEDIUM AND METHODS INVOLVED IN PREPARATION FOR THE DETERMINATION OF PATENCY OF CONDUITS” (priority 2016, published 2019).

## CCN(CC)CC(=O)Nc1c(C)cccc1C [Lidocaine]
Post administration
  alteration of fertility levels: not reported
Upon injection into uterine cavity or into peritoneal cavity
  safety: highly safe
